Data reported in patent US20260125378A2, “Heterocyclic Compounds” (BeOne Medicines I GmbH, priority 2023, published 2026).

Key:
[1] = target: T1, Full length DGKα (D21-10BG, SignalChem) (Homo sapiens, UniProt P23743); experiment: Biochemical DGK IC50 assay (ADP-Glo, lipid micelle substrate), DGKα; conditions: 1 hour preincubation, 1 hour reaction, room temperature
T1 construct: Full length DGKα (D21-10BG, SignalChem); purchased SignalChem D21-10BG
Description: (§1) Enzymatic reactions of DGKζ, DGKα and DGKδ were performed using ADP-Glo assay with lipid micelle substrate. […] Full length DGKα (D21-10BG, SignalChem) and full length DGKδ (D23-10G, SignalChem) were purchased. Lipid micelle was prepared by dissolving DAG (Sigma, 317505-10 MG) and PS (Sigma, P7769-100 MG) with chloroform which was furtherly removed by rotary evaporation. The obtained residue was resuspended in buffer containing 25 mM HEPES pH 7.0, 0.5 mM EDTA and 160 mM Octyl β-D glucopyranoside by vigorous mixing and ultrasonic (IID, Scientz).
(§2) The inhibition activities testing for the compound disclosed herein were carried out at room temperature in assay buffer containing 50 mM HEPES, 10 mM MgCl2, 0.01% BSA, 0.1 mM Na3VO4, 0.005% Tween-20 and 0.01 mM CaCl2). Compounds in DMSO were dispensed into wells of a black 384 well plate (Corning 4514) using D300e digital dispenser (Tecan). […] 3 μL 2× enzyme solution was added to wells. […] After 1 hour reaction, 5 μL ADP-Glo reagent (Promga V9101) was added and incubated for 40 minutes. 10 μL Kinase Detection reagent was added and incubated for 30 minutes. Luminescence was measured on a microplate reader (PHERAstar FSX, BMG labtech). The IC50S are calculated based on inhibition of enzyme activity in the presence of increasing concentrations of compounds.

[2] = target: T2, Full length DGKζ (in-house protein M1-V929) (Homo sapiens, UniProt Q13574); experiment: Biochemical DGK IC50 assay (ADP-Glo, lipid micelle substrate), DGKζ; conditions: 1 hour preincubation, 1 hour reaction, room temperature
T2 construct: His (N); TEV site (N); made in house; host or cells: Sf9 insect cells (Bac-to-Bac baculovirus)
Description: as §1, §2
Human His-TEV-DGK-zeta-pFastBac1 and human baculovirus samples was generated using the Bac- to -Bac baculovirus expression system (Invitrogen) according to the manufacturer's protocol. The DNA used for expression of DGK-zeta, have SEQ ID Nos: 1. Baculovirus amplification was achieved using infected SF9 cells at 1:2000 virus/cells ratios, and grown for 96 hours at 27° C. post-transfected.
The expression scaled up for each protein was carried out in the […] from CORNING. 4 L of 3×10^6 cells/mL Sf9 cells (Expression System, Invitrogen) grown in SF900™ II SFM insect medium (Expression System) was infected with virus stock at 1:200 virus/cells ratio, and grown for 48 hours at 27° C. post-transfection. The infected cell culture was harvested by centrifugation at 6000 rpm for 15 min 4° C. in a SORVALL LYNX6000 centrifuge. The cell pellets were stored at −80° C.
Full length human DGKζ produced as described above, was purified from Sf9 baculovirus-infected insect cell paste. The cells were lysed using sonication method, and the lysates were clarified by centrifugation.

T1 sequence (P23743 whole entry): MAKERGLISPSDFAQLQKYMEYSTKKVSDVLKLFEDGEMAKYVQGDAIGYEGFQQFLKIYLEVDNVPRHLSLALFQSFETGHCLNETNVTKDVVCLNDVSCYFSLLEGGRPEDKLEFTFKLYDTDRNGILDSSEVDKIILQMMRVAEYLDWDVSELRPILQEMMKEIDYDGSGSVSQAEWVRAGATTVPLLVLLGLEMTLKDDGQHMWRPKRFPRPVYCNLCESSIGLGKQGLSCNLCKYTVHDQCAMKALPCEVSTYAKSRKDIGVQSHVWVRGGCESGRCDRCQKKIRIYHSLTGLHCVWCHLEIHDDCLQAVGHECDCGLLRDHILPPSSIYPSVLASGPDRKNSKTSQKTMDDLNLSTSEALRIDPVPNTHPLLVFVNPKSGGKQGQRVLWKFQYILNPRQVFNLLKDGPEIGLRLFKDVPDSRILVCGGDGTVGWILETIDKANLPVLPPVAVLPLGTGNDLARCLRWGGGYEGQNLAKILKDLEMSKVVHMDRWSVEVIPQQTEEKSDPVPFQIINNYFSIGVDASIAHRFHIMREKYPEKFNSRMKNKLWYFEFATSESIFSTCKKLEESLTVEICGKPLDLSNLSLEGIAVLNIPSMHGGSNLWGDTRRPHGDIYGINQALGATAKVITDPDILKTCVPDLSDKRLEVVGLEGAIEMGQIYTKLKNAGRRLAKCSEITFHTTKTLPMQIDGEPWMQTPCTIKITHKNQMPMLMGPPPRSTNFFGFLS
T2 sequence (Q13574 1-929 isoform Q13574-4): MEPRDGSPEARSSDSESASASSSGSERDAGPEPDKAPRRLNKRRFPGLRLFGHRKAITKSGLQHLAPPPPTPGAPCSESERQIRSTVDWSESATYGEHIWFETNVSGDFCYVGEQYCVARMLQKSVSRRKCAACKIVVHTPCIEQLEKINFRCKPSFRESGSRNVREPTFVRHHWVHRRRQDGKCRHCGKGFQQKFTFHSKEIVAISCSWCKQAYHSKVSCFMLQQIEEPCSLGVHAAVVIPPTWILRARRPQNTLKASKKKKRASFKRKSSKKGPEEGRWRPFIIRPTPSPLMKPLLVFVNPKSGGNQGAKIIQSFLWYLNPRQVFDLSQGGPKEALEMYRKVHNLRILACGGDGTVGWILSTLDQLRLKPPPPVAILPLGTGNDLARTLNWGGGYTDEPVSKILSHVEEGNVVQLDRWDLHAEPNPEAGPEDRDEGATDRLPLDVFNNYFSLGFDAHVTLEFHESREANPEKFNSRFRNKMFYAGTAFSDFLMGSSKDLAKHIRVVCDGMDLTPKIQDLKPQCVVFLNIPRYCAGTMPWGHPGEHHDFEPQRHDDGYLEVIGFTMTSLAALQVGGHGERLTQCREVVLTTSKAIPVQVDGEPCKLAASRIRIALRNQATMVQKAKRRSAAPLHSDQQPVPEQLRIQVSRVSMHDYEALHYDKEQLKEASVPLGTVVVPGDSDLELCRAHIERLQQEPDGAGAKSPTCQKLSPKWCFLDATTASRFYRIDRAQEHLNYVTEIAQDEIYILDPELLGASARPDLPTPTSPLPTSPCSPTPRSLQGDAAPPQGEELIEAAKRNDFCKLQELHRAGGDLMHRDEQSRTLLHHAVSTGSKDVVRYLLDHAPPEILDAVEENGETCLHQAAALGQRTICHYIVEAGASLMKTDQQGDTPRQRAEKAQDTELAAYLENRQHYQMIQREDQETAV

| SMILES | IC50 [1] [nM] | IC50 [2] [nM] |
| --- | --- | --- |
| COC[C@H]1CN(C(C)c2ccc(F)cc2C(F)(F)F)[C@H](C)CN1c1nc(=O)n(C)c2c1nc(CC#N)n2C (stereo partly drawn) [Compound A10, 2-(6-((2R,5R)-4-(1-(4-fluoro-2-(trifluoromethyl)phenyl)ethyl)-2-(methoxymethyl)-5-methylpiperazin-1-yl)-3,9-dimethyl-2-oxo-3,9-dihydro-2H-purin-8-yl)acetonitrile] | > 10000 | 25 |
| CCn1c(CC#N)nc2c(N3C[C@@H](C)N(C(C)c4ccc5c(c4)OC(F)(F)CO5)C[C@@H]3C)nc(=O)n(C)c21 (mixture of isomers) [Compound A80, 2-(6-((2S,5R)-4-(1-(3,3-difluoro-2,3-dihydrobenzo[b][1,4]dioxin-6-yl)ethyl)-2,5-dimethylpiperazin-1-yl)-9-ethyl-3-methyl-2-oxo-3,9-dihydro-2H-purin-8-yl)acetonitrile] | 95000 | 31 |
| COC[C@H]1CN(C(C)c2ccc3c(c2)OC(C)(C)CO3)[C@H](C)CN1c1nc(=O)n(C)c2c1nc(CC#N)n2C (single isomer, unassigned) [Compound A12a] | 18800 | 2.7 |
| CC(c1cccnc1C(F)(F)F)N1C[C@H](C)N(c2cc(=O)n(C)c3c2nc(CC#N)n3C)C[C@H]1C (single isomer, unassigned) [Compound A7b] | 97600 | 35 |
| CCn1c(CC#N)nc2c(N3C[C@@H](C)N(C(C)c4cc5c(cc4Cl)OCC(C)(C)O5)C[C@@H]3C)nc(=O)n(C)c21 (stereo partly drawn) [Compound A73, 2-(6-((2S,5R)-4-(1-(7-chloro-3,3-dimethyl-2,3-dihydrobenzo[b][1,4]dioxin-6-yl)ethyl)-2,5-dimethylpiperazin-1-yl)-9-ethyl-3-methyl-2-oxo-3,9-dihydro-2H-purin-8-yl)acetonitrile] | > 150000 | 639 |
| CC(c1ccc(F)cc1C(F)(F)F)N1C[C@H](C)N(c2cc(=O)n(C)c3[nH]c(CC#N)nc23)C[C@H]1C (stereo partly drawn) [Compound A9, 2-(7-((2S,5R)-4-(1-(4-fluoro-2-(trifluoromethyl)phenyl)ethyl)-2,5-dimethylpiperazin-1-yl)-4-methyl-5-oxo-4,5-dihydro-3H-imidazo[4,5-b]pyridin-2-yl)acetonitrile] | > 10000 | 262 |
| COCc1cc(F)ccc1C(C)N1C[C@H](C)N(c2nc(=O)n(C)c3c2nc(CC#N)n3C)C[C@H]1C (single isomer, unassigned) [Compound A27a] | > 10000 | 569 |
| CC(c1ccc(F)cc1OC(C)(F)F)N1C[C@H](C)N(c2nc(=O)n(C)c3c2nc(CC#N)n3C)C[C@H]1C (stereo partly drawn) [Compound A31, 2-(6-((2S,5R)-4-(1-(2-(1,1-difluoroethoxy)-4-fluorophenyl)ethyl)-2,5-dimethylpiperazin-1-yl)-3,9-dimethyl-2-oxo-3,9-dihydro-2H-purin-8-yl)acetonitrile] | 110000 | 4 |
| CCn1c(CC#N)nc2c(N3C[C@@H](C)N(C(C)c4ccc5c(c4)OC(C)(C)O5)C[C@@H]3C)nc(=O)n(C)c21 (single isomer, unassigned) [Compound A85b] | 88600 | 14 |
| CCn1c(CC#N)nc2c(N3C[C@@H](C)N(C(C)c4ccc5c(c4)C(F)(F)CCO5)C[C@@H]3C)nc(=O)n(C)c21 (stereo partly drawn) [Compound A78, 2-(6-((2S,5R)-4-(1-(4,4-difluorochroman-6-yl)ethyl)-2,5-dimethylpiperazin-1-yl)-9-ethyl-3-methyl-2-oxo-3,9-dihydro-2H-purin-8-yl)acetonitrile] | 102000 | 7 |
| CC(c1ccc(F)cc1OC(F)F)N1C[C@H](C)N(c2nc(=O)n(C)c3c2nc(CC#N)n3C)C[C@H]1C (stereo partly drawn) [Compound A25, 2-(6-((2S,5R)-4-(1-(2-(difluoromethoxy)-4-fluorophenyl)ethyl)-2,5-dimethylpiperazin-1-yl)-3,9-dimethyl-2-oxo-3,9-dihydro-2H-purin-8-yl)acetonitrile] | 36900 | 15 |
| CC(c1ccc2c(c1)OCCO2)N1C[C@H](C)N(c2nc(=O)n(C)c3c2nc(CC#N)n3C)C[C@H]1C (single isomer, unassigned) [Compound A58b] | 90800 | 1660 |
| CC(c1cc2c(cc1F)OCC(C)(C)O2)N1C[C@H](C)N(c2nc(=O)n(C)c3c2nc(CC#N)n3C)C[C@H]1C (single isomer, unassigned) [Compound A69b] | 6090 | 147 |

The next lines start with the values.

| IC50 [1] [nM] | IC50 [2] [nM] | SMILES |
| --- | --- | --- |
| > 150000 | > 10000 | CCn1c(CC#N)nc2c(N3C[C@@H](C)N(C(C)c4ccc5c(c4)c(=O)c(C)cn5C)C[C@@H]3C)nc(=O)n(C)c21 (stereo partly drawn) [Compound A193, 2-(6-((2S,5R)-4-(1-(1,3-dimethyl-4-oxo-1,4-dihydroquinolin-6-yl)ethyl)-2,5-dimethylpiperazin-1-yl)-9-ethyl-3-methyl-2-oxo-3,4,5,9-tetrahydro-2H-purin-8-yl)acetonitrile] |
| 7020 | 873 | CC(c1ccc2nccnc2c1)N1C[C@H](C)N(c2cc(=O)n(C)c3sc(CC#N)nc23)C[C@H]1C (single isomer, unassigned) [Compound A194b] |
| 11600 | 28 | CCn1c(CC#N)nc2c(N3C[C@@H](C)N(C(C)c4cc5c(cc4F)OCC(C)(C)O5)C[C@@H]3C)nc(=O)n(C)c21 (single isomer, unassigned) [Compound A157a] |
| 28500 | 31 | CCn1c(CC#N)nc2c(N3C[C@@H](C)N(C(C)c4ccc5c(c4)OC4(CCC4)O5)C[C@@H]3C)nc(=O)n(C)c21 (mixture of isomers) [Compound A169, 2-(6-((2S,5R)-2,5-dimethyl-4-(1-(spiro[benzo[d][1,3]dioxole-2,1′-cyclobutan]-5-yl)ethyl)piperazin-1-yl)-9-ethyl-3-methyl-2-oxo-3,9-dihydro-2H-purin-8-yl)acetonitrile] |
| 2690 | 707 | CC#CCc1nc2c(N3C[C@@H](CC)N(C(C)c4ccc(C(F)(F)F)cc4)C[C@@H]3CC)nc(=O)n(C)c2n1C (stereo partly drawn) [Compound A152, 8-(but-2-yn-1-yl)-6-((2S,5R)-2,5-diethyl-4-(1-(4-(trifluoromethyl)phenyl)ethyl)piperazin-1-yl)-3,9-dimethyl-3,9-dihydro-2H-purin-2-one] |
| > 150000 | 228 | CCn1c(CC#N)nc2c(N3C[C@@H](C)N(C(C)c4ccc(C)cc4C(F)(F)F)C[C@@H]3C)nc(=O)n(C)c21 (single isomer, unassigned) [Compound A116b] |
| 37200 | 291 | CCn1c(CC#N)nc2c(N3C[C@@H](C)N(C(C)c4ccc5c(c4F)OC(C)(C)O5)C[C@@H]3C)nc(=O)n(C)c21 (single isomer, unassigned) [Compound A175a] |
| > 150000 | 2630 | CCn1c(CC#N)nc2c(N3C[C@@H](C)N(C(C)c4nc5c(cc4F)OCC(C)(C)O5)C[C@@H]3C)nc(=O)n(C)c21 (single isomer, unassigned) [Compound A161b] |
| > 150000 | 414 | CCn1c(CC#N)nc2c(N3C[C@@H](C)N(C(C)c4ccc5c(c4)C(=O)N(C)CC5)C[C@@H]3C)nc(=O)n(C)c21 (stereo partly drawn) [Compound A93, 2-(6-((2S,5R)-2,5-dimethyl-4-(1-(2-methyl-1-oxo-1,2,3,4-tetrahydroisoquinolin-7-yl)ethyl)piperazin-1-yl)-9-ethyl-3-methyl-2-oxo-3,9-dihydro-2H-purin-8-yl)acetonitrile] |
| 2430 | 178 | CC(c1cc2ccccc2cn1)N1C[C@H](C)N(c2nc(=O)n(C)c3c2nc(CC#N)n3C)C[C@H]1C (stereo partly drawn) [Compound A154, 2-(6-((2S,5R)-4-(1-(isoquinolin-3-yl)ethyl)-2,5-dimethylpiperazin-1-yl)-3,9-dimethyl-2-oxo-3,9-dihydro-2H-purin-8-yl)acetonitrile] |
| 13100 | 40 | CCn1c(CC#N)nc2c(N3C[C@@H](C)N(C(C)c4c(F)cc5c(c4F)OC(C)(C)O5)C[C@@H]3C)nc(=O)n(C)c21 (single isomer, unassigned) [Compound A176a] |
| > 150000 | 3 | CCn1c(CC#N)nc2c(N3C[C@@H](C)N(C(C)c4ccc5c(c4F)OC(C)(C)O5)C[C@@H]3C)c(F)c(=O)n(C)c21 (single isomer, unassigned) [Compound A190a] |
